ChEMBL document CHEMBL1129988, “4-substituted cubylcarbinylamines: a new class of mechanism-based monoamine oxidase B inactivators” (J Med Chem, 1997)

Assay: Partition ratio was determined

| Partition ratio | SMILES |
| --- | --- |
| 152 | NCC12C3C4C5C3C1C5C42 (stereo not drawn) |
| 277 | NCC12C3C4C1C1C2C3C41c1ccccc1 (stereo not drawn) |
| 536 | NCC12C3C4C1C1C2C3C41C1CC1 (stereo not drawn) |
